{
  "source": "paper PMC9436819",
  "about": "(JACC: Basic to Translational Science, 2022)",
  "key": {"[1]": {"test_system": "healthy adults", "assay": "Echocardiography (core laboratory) pharmacodynamics, SAD cohorts", "assay_type": "in vivo, human", "method": "For PD assessments of LVEF, echocardiograms for the SAD and MAD cohorts were interpreted by the echocardiography core laboratory and used for all data analysis and dose-level review decisions, and immediate local interpretation of the echocardiograms was performed for safety monitoring. […] Echocardiograms on day 3 (48 hours after dosing) were obtained only if the 24-hour LVEF had not returned to near or above baseline, as determined by the investigator. In the MAD cohorts, echocardiograms were obtained on day -1; predose on day 1; at 1.5 hours postdose on days 2, 4, and 9; and at 1.5, 24, and 72 hours postdose on day 14 (for the 5-mg and 10-mg cohorts) or on day 17 (for the 7.5-mg cohort). Echocardiograms were obtained 3 days after the last dose (on day 17 or 20) only if the participant’s prior LVEF was not near or above baseline, as determined by the investigator.\nUsing echocardiography instrumentation certified for clinical use, echocardiographic images were obtained from standard views based on American Society of Echocardiography recommendations for chamber quantification.[19] To obtain the LVEF, the endocardial borders of 3 different cardiac cycles were traced at both end diastole and end systole from the apical 4- and 2-chamber views and LV end-diastolic volume (LVEDV) and LV end-systolic volume (LVESV), calculated using the Simpson’s method of discs algorithm. Ejection fraction was calculated in the standard manner: LVEF = (LVEDV − LVESV)/LVEDV. The intraobserver variability (coefficient of variation) for LVEF was 8%.\nAll participants who received ≥1 dose of the study drug and had ≥1 predose and ≥1 postdose echocardiographic measurements were included in the PD analysis set. […] Descriptive statistics of the echocardiographic parameters were generated using SAS, version 9.3 or higher. Dose-response analysis was performed using analysis of covariance to identify the least-squares mean difference (aficamten minus placebo), as described in the Supplemental Appendix. Analyses of concentration “bin” and exposure-response were also performed using analysis of covariance, as described in the Supplemental Appendix. SAS PROC MIXED was used for all comparative analyses.\nStatistical A nalysis of P harmacodynamic (PD) P aram eters\nTo analyze the impact of drug dose on echocardiographic parameters in the SAD and MAD\ncohorts, an inferential analysis was conducted on t he PD analysis set using linear mixed models\nfor rep eated -measur es an alysis of covarian ce ( AN COVA). The A NCOVA used baseline valu e as\na covariate, included treatment, time-point, and time-point-by- treatment interaction as fixed\neffects, and ch ange f rom baseline as the d ependent variable. Th e unstructur ed varian ce-\ncovarian ce structu re w as used, and the model acco unted for the time- point r epeated m easur es.\nThe ANCOVA analysis was conducted separately for each study part and f or each PD p aram eter .\nThe least-squares means, the difference in least squares means (active minus placebo), and the\nassociated 2-sided 95% CIs were presented for each comparison.\nConcentration bin analysis\nAn additional inferential analysis was performed i n the SAD and MAD cohorts , to evaluate the\nanalysis set. A concentrat ion bin ANCOVA was conducted using linear mi xed models for\nrepeat ed-measures an aly ses with concentr ation bin group as a fix ed ef fect, baseline PD\nparameters as a covari ate, change f rom baseline as the dependent v ariable, and a random\nintercept to adjust for the repeat ed measures. The unstructured variance-co variance structur e was\nused.Plasma concentr ations of aficamten wer e paired with coincident PD parameters. The\nANCOVA compared the change in PD parameters between each bin versus the pooled placebo\ngroup. The least-squ ares means, the differen ce in l east squares m eans (bin group minus placebo),\nand the associat ed 2-sided 95% CIs were pres ented for each comparison. The ANCOVA analysis"}, "[2]": {"assay": "Plasma pharmacokinetics in the CYP2D6 poor metabolizer cohort", "assay_type": "in vivo, human", "method": "CYP2D6 genotypes were determined at screening for all study participants; those identified as CYP2D6-PMs were excluded from the SAD and MAD cohorts but were invited to participate in the CYP2D6-PM cohort. The first individual in the CYP2D6-PM cohort was dosed after the SAD 25-mg cohort (Figure 1). […] Nine participants were randomized (7:2), with a sentinel dosing group consisting of the first 2 participants treated. For all study groups, blood samples for PK assessment were obtained predose, up to 12 times daily on day 1, and then at regular intervals throughout the study (see Supplemental Appendix for details). Standard noncompartmental methods were used to calculate PK parameters using Phoenix WinNonlin, version 7.0; actual sample collection times were used."}, "[3]": {"details": "SAD 50 mg (n = 11), […] postdose"}, "[4]": {"details": "CYP2D6 poor metabolizers, single 10 mg, arithmetic mean ± SD, n = 7"}, "[5]": {"details": "human, plasma, oral, CYP2D6 poor metabolizers, single 10 mg, geometric mean (geometric CV%), n = 7"}},
  "note": "Values joined by “and” are separate entries in the source; they are usually repeats but may differ in a detail not shown here. Equal values may be shown once. “Also recorded” adds a separate entry of the source.",
  "data": [
    {"smiles": "CCc1nc(-c2ccc3c(c2)CC[C@H]3NC(=O)c2cnn(C)c2)no1", "note": "[Aficamten]", "values": [
      {"measurement": "Participants with absolute reduction in LVEF of ≥5% from baseline", "setting": "[1]; SAD 1 mg", "value": "no participants"},
      {"measurement": "Participants with absolute reduction in LVEF of ≥5% from baseline", "setting": "[1]; SAD 3 mg, 1 of 6", "value": 17, "unit": "%"},
      {"measurement": "Participants with absolute reduction in LVEF of ≥5% from baseline", "setting": "[1]; SAD 10 mg", "value": "no participants"},
      {"measurement": "Participants with absolute reduction in LVEF of ≥5% from baseline", "setting": "[1]; SAD 25 mg", "value": "no participants"},
      {"measurement": "Participants with absolute reduction in LVEF of ≥10%", "setting": "[1]; SAD 40 mg, 1 of 6", "value": 17, "unit": "%"},
      {"measurement": "Participants with absolute reduction in LVEF of ≥5% from baseline", "setting": "[1]; SAD 40 mg, 2 of 6", "value": 33, "unit": "%"},
      {"measurement": "A (peak A wave velocity), mean", "setting": "[1]; [3]", "value": 54.5, "unit": "cm/s"},
      {"measurement": "A (peak A wave velocity), mean change from baseline", "setting": "[1]; [3]", "value": 2.5, "unit": "cm/s"},
      {"measurement": "E (peak E wave velocity), mean", "setting": "[1]; [3]", "value": 64.0, "unit": "cm/s"},
      {"measurement": "E (peak E wave velocity), mean change from baseline", "setting": "[1]; [3]", "value": -2.7, "unit": "cm/s"},
      {"measurement": "Heart rate, mean", "setting": "[1]; [3]", "value": 62.3, "unit": "bpm"},
      {"measurement": "Heart rate, mean change from baseline", "setting": "[1]; [3]", "value": 0.5, "unit": "bpm"},
      {"measurement": "IVCT, mean", "setting": "[1]; [3]", "value": 42.6, "unit": "ms"},
      {"measurement": "IVCT, mean change from baseline", "setting": "[1]; [3]", "value": 0.4, "unit": "ms"},
      {"measurement": "IVRT, mean", "setting": "[1]; [3]", "value": 69.3, "unit": "ms"},
      {"measurement": "IVRT, mean change from baseline", "setting": "[1]; [3]", "value": 0.5, "unit": "ms"},
      {"measurement": "LAV, mean", "setting": "[1]; [3]", "value": 35.7, "unit": "mL"},
      {"measurement": "LAV, mean change from baseline", "setting": "[1]; [3]", "value": 0.0, "unit": "mL"},
      {"measurement": "LV CO, mean", "setting": "[1]; [3]", "value": 3240, "unit": "mL"},
      {"measurement": "LV CO, mean change from baseline", "setting": "[1]; [3]", "value": -346, "unit": "mL"},
      {"measurement": "LV EDV, mean", "setting": "[1]; [3]", "value": 99.8, "unit": "mL"},
      {"measurement": "LV EDV, mean change from baseline", "setting": "[1]; [3]", "value": 6.6, "unit": "mL"},
      {"measurement": "LV ESV, mean", "setting": "[1]; [3]", "value": 39.7, "unit": "mL"},
      {"measurement": "LV ESV, mean change from baseline", "setting": "[1]; [3]", "value": 8.1, "unit": "mL"},
      {"measurement": "LV ET, mean", "setting": "[1]; [3]", "value": 328, "unit": "ms"},
      {"measurement": "LV SV, mean", "setting": "[1]; [3]", "value": 52.6, "unit": "mL"},
      {"measurement": "LV SV, mean change from baseline", "setting": "[1]; [3]", "value": -6.2, "unit": "mL"},
      {"measurement": "LVEF, mean", "setting": "[1]; [3]", "value": 60.5, "unit": "%"},
      {"measurement": "LVEF, mean change from baseline", "setting": "[1]; [3]", "value": -5.8, "unit": "%"},
      {"measurement": "e' lateral, mean", "setting": "[1]; [3]", "value": 10.2, "unit": "cm/s"},
      {"measurement": "e' lateral, mean change from baseline", "setting": "[1]; [3]", "value": -1.3, "unit": "cm/s"},
      {"measurement": "Participants with reduction in LVEF to <50%", "setting": "[1]; SAD 50 mg, 2 of 11, core laboratory", "value": 18, "unit": "%"},
      {"measurement": "Participants with absolute reduction in LVEF of ≥5% from baseline", "setting": "[1]; SAD 50 mg, 7 of 11", "value": 64, "unit": "%"},
      {"measurement": "Mean maximum reduction in LVEF from baseline", "setting": "[1]; SAD 50 mg, […] postdose", "value": 5.8, "unit": "%"},
      {"measurement": "Reduction in LVEF, placebo corrected least-squares mean difference", "setting": "[1]; SAD 50 mg, […] postdose", "value": 5.5, "unit": "%"},
      {"measurement": "LVEF of the individual participants with LVEF <50%", "setting": "[1]; SAD 50 mg, per core laboratory assessment", "value": "48.2% and 45.5%"},
      {"measurement": "Participants with absolute reduction in LVEF of ≥5% from baseline", "setting": "[1]; SAD 75 mg, 1 of 1", "value": 100, "unit": "%"},
      {"measurement": "Participants with reduction in LVEF to <50%", "setting": "[1]; SAD 75 mg, 1 of 1, core laboratory", "value": 100, "unit": "%"},
      {"measurement": "Participants with absolute reduction in LVEF of ≥10%", "setting": "[1]; SAD 75 mg, 1 participant", "value": 100, "unit": "%"},
      {"measurement": "LVEF of the participant (only participant with LVEF <45%)", "setting": "[1]; SAD 75 mg, core laboratory", "value": "< 45", "unit": "%"},
      {"measurement": "Relationship of LVEF to plasma concentration", "setting": "[1]; SAD cohorts, highest concentration bin 122-524 ng/mL P < 0.001, concentration-slope analysis P = 0.003", "value": "statistically significant decrease"},
      {"measurement": "Time for reversal of decreases in LVEF to <50%", "setting": "[1]; following single doses", "value": "≤ 6", "unit": "h"},
      {"measurement": "Time for LVEF to return to baseline", "setting": "[1]; participants whose LVEFs fell below 50%", "value": "≤ 24", "unit": "h"},
      {"measurement": "Time after dosing at which LVEF <50% was noted", "setting": "[1]; single 50 or 75 mg", "value": "approximately 1.5 hours"},
      {"measurement": "CL/F", "setting": "[2]; [4]", "value": "3.6 ± 1.4", "unit": "L/h"},
      {"measurement": "t½", "setting": "[2]; [4]", "value": 110, "unit": "h"},
      {"measurement": "half-life", "setting": "[2]; human, plasma, oral, 10 mg, CYP2D6 poor metabolizers, single 10 mg, arithmetic mean ± SD, n = 7, read-out: t½ (converted)", "value": "110 ± 47.3", "unit": "h"},
      {"measurement": "Vd/F", "setting": "[2]; human, plasma, oral, CYP2D6 poor metabolizers, single 10 mg, arithmetic mean ± SD, n = 7, read-out: Vz/F", "value": "506 ± 84.4", "unit": "L"},
      {"measurement": "AUC(0-inf)", "setting": "[2]; [5]", "value": 2970, "unit": "ng·h/mL"},
      {"measurement": "Cmax", "setting": "[2]; [5]", "value": 57.3, "unit": "ng/mL"},
      {"measurement": "AUC", "setting": "[2]; human, plasma, oral, CYP2D6 poor metabolizers, single 10 mg, geometric mean (geometric CV%), n = 7, read-out: AUC24", "value": 495, "unit": "ng·h/mL"},
      {"measurement": "Tmax", "setting": "[2]; human, plasma, oral, CYP2D6 poor metabolizers, single 10 mg, median (range), n = 7", "value": 1, "unit": "h"},
      {"measurement": "Effect of CYP2D6 poor metabolizer phenotype on the PK", "setting": "[2]; single 10 mg", "value": "not affected; also recorded: no effect"},
      {"measurement": "Plasma mean concentrations in CYP2D6 poor metabolizers versus extensive metabolizers", "setting": "[2]; single 10-mg dose", "value": "Modestly lower"}
    ]}
  ]
}
